Experimental findings from patent publication US20200131249A1, “NOVEL PROTEINS AND USE THEREOF” (EVOLVERITAS KFT., priority 2017, published 2020) are described below.

Assay type in all cases: biochemical
The subject of test [1] is alternative pathway. Nature of the test: C3 deposition ELISA with rat serum on LPS coated plates. The following applies: final concentrations as high as 50 μM; 6-fold diluted rat serum. As to the method: (§1) ELISA-based complement classical and alternative pathway activation tests were performed on IgG or lipopolysaccharide (LPS) coated plates, respectively, using diluted individual (not pooled) rat serum. In these tests, inhibitory efficiencies of the protein of SEQ ID NO: 14 and SGMI-2 were compared and C3 deposition was used for quantification of the complement activation.
The buffers, incubation times, incubation temperatures and antibodies were the same as described in point 4.5.1.
The final dilution of the rat serum was 6-fold. The dilution of the primary antibody was 3000-fold.
(In an ELISA, binding on a coated surface is turned into a signal by an enzyme label.)

The subject of test [2] is classical pathway. Nature of the test: C3 deposition ELISA with diluted rat serum on IgG coated plates. The following applies: final concentrations as high as 50 μM; 50-fold diluted rat serum. As to the method: as §1
96-well Greiner high binding ELISA plates were coated with 100 μl/well 10 μg/ml IgG (Sigma—12511) dissolved in coating buffer (50 mM sodium-carbonate pH 9.6) overnight at 4° C. Control wells contained coating buffer alone. Wells were blocked for 2 h at 37° C. with 200 μl/well 10 mg/ml bovine serum albumin (BSA) dissolved in 50 mM Tris pH 7.4, 150 mM NaCl, 0.1% Tween-20 buffer. Serial dilutions of the inhibitors were made in 10 mM HEPES pH 7.4, 150 mM NaCl, 5 mM CaCl2, 5 mM MgCl2, 0.1% Tween-20 buffer (serum dilution buffer). Rat serum was thawed on ice and diluted 25-fold in serum dilution buffer. The diluted inhibitor samples were mixed with the 25-fold diluted rat serum in 1:1 volume ratio resulting in 50-fold diluted rat serum-inhibitor samples. The samples were incubated at room temperature for 30 minutes. […] The 490 nm absorbance values were recorded using a PerkinElmer EnSpire multimode plate reader. Four parallels were measured for each data point.

Test [3] addresses T1, human MASP-1 (Homo sapiens, UniProt P48740).
T1 construct: catalytic enzyme fragments containing the three C-terminal domains: CCP1-CCP2-SP
T1 sequence (P48740 449-699 limits assumed): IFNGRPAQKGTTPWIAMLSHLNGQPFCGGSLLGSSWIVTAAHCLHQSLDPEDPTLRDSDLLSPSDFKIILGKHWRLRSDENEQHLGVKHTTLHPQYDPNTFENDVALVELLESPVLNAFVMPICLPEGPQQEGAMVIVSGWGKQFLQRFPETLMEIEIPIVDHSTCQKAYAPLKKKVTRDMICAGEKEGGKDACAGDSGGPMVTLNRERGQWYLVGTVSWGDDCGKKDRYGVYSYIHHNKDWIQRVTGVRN
T1 sequence (P48740 298-448 partner limits assumed): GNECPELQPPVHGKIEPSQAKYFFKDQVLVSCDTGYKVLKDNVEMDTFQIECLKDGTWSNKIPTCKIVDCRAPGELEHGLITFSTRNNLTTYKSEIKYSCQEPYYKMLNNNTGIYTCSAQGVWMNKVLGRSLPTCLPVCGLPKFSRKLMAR
Nature of the test: KI determination on human MASP-1 catalytic fragment. On the set-up: key to KI on human MASP-1: N.E.: not effective. To be noted: catalytic fragment; Z-L-Lys-SBzl. As to the method: The inhibition equilibrium constant (KI) of all four inhibitor variants produced was measured on human MASP-2 and rat MASP-2. Additionally, KI values were measured also on human MASP-1 and human MASP-3 to assess the specificity of the inhibitors amongst the MASP enzymes. KI values of the inhibitors on bovine trypsin, a pancreatic model enzyme was also measured.
For determining the KI of the inhibitors on MASP enzymes we used catalytic enzyme fragments containing the three C-terminal domains: CCP1-CCP2-SP. The synthetic substrate used in the measurements was Z-L-Lys-SBzl hydrochloride (Sigma, C3647), from which a 10 mM stock solution was prepared. The reactions were performed in a volume of 0.2 ml at room temperature in a buffer consisting of 20 mM HEPES; 145 mM NaCl; 5 mM CaCl2; 0.05% Triton-X100. The substrate cleaved by the enzyme entered into a reaction with the 5,5′-Dithiobis(2-nitrobenzoic acid) (DTNB, Ellman's reagent, Sigma—D8130) auxiliary substrate present in the solution in 2-fold excess to Z-L-Lys-SBzl. The release of the chromophore group created in this way was monitored via the change of absorbance at 410 nm using a BioTek Synergy H4 multimode microplate reader.
A dilution sequence was prepared from the individual inhibitors, the enzyme was added to it, and it was incubated for 2 hours at room temperature. The samples were transferred on a 96-well microtiter plate (Nunc 269620). The reactions were started by adding the mixture of the substrate and the auxiliary substrate to the samples. The concentration of the substrate and the length of the measuring period were chosen so that under the given conditions the enzyme should consume less than 10% of the substrate. In this case we used 250 μM Z-L-Lys-SBzl and 500 μM DTNB in the reactions. In the course of measuring, a method developed for the characterisation of tight-binding inhibitors was used (Empie, 1982). The concentration of the product was measured as a function of reaction time. The slope of the straight line determined for the initial phase of the reaction was normalised with the slope obtained for the uninhibited enzyme reaction, and this value was multiplied with the total enzyme concentration. As a result of this we obtained the free enzyme concentration, which was plotted as a function of the total inhibitor concentration and the Ki value was determined according to the following equation:
E=y=E0−(E0+x+Ki−(((E0+x+Ki)^2)−4*E0*x)^(½))/2,
where E is the free (uninhibited) enzyme concentration, and E0 is the total enzyme concentration. The stock concentration of the inhibitors was determined by titration with bovine trypsin of known concentration. The results were calculated as the average of parallel measurements.

Where no end group is shown, it is not given here.

“SEQ ID NO: 14: TFPI-D2 variant protein with inhibitor loop PCRAVKR (SEQ ID NO: 4) (KPDFCFLEEDPGPCRAVKRRYFYNNQTKQCERFKYGGCLGNMNNFETLEECKNICEDG; ends and bridges not checked; cysteine pairing not given here)”: the “inhibition of the alternative pathway in rat serum” value in test [1] is recorded as “neither the protein of SEQ ID NO: 14 nor SGMI-2 were able to inhibit”. Moreover, the “inhibition of the classical pathway in rat serum” value in test [2] was “neither the protein of SEQ ID NO: 14 nor SGMI-2 were able to inhibit”. For the same substance, the “KI on human MASP-1” value in test [3] was “N.E”.

For “SGMI-2 (GSGEVTCEPGTTFKDKCNTCRCGSDGKSAVCTKLWCNQ; Synthetic protein of insect origin) [reference compound]”, in test [1], the “inhibition of the alternative pathway in rat serum” value is on record as “neither the protein of SEQ ID NO: 14 nor SGMI-2 were able to inhibit”. The “inhibition of the classical pathway in rat serum” value in test [2] is reported as “neither the protein of SEQ ID NO: 14 nor SGMI-2 were able to inhibit”. In test [3], the “KI on human MASP-1” value was “N.E”.
